In the supplement of paper PMC8967900:

test system: PF-382; assay: selective drug sensitivity score (sDSS, relative to normal bone marrow) (sDSS (score)); higher = more potent and effective on the cell line relative to normal bone marrow cells; details: 72 h
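Note: ALL cell lines in 384-well plates, five doses spanning 10,000-fold, each plate scaled between vehicle and 100 µmol/L benzalkonium chloride controls, sDSS an adapted area-under-curve metric.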

Compared with `Nc1ccccc1NC(=O)c1ccc(CNC(=O)OCc2cccnc2)cc1` [Entinostat] (top concentration 10000 nM), `Nc1ccccc1NC(=O)c1ccc(CNc2nccc(-c3cccnc3)n2)cc1` [Mocetinostat] (top concentration 10000 nM) is higher in “selective drug sensitivity score” value: 2.08 for the first, 6.04 for the second.

Compared with `C#Cc1cccc(Nc2ncnc3cc(OCCOC)c(OCCOC)cc23)c1` [Erlotinib] (top concentration 10000 nM), `COc1cc2c(cc1-c1c(C)noc1C)ncc1[nH]c(=O)n([C@H](C)c3ccccn3)c12` [I-BET151] (top concentration 10000 nM) is higher in “selective drug sensitivity score” value: 0.46 for the first, 4.06 for the second.

Going from `O=C(Nc1nc2cccc(-c3ccc(CN4CCS(=O)(=O)CC4)cc3)n2n1)C1CC1` [Filgotinib] (top concentration 10000 nM) to `CN(C)C1CCN(C(=O)c2ccc(NC(=O)Nc3ccc(-c4nc(N5CCOCC5)nc(N5CCOCC5)n4)cc3)cc2)CC1` [Gedatolisib] (top concentration 1000 nM), the “selective drug sensitivity score” value rises from -2.24 to 5.06.

Going from `C[C@H]1C=C2C(=O)O[C@H]3CC[C@@H](C1)[C@@]23O` [Galiellalactone] (top concentration 25000 nM) to `CC(=O)O[C@]1(C(C)=O)CC[C@H]2[C@@H]3C=C(C)C4=CC(=O)CC[C@]4(C)[C@H]3CC[C@@]21C` [Megestrol_acetate] (top concentration 10000 nM), the “selective drug sensitivity score” value falls from 4.16 to 0.32.

Going from `Nc1ccn([C@@H]2O[C@H](CO)[C@@H](O)C2(F)F)c(=O)n1` [Gemcitabine] (top concentration 1000 nM) to `O=C1CCc2c(Oc3ccc4c(c3)[C@@H]3[C@H](O4)[C@H]3c3nc4cc(C(F)(F)F)ccc4[nH]3)ccnc2N1` [Lifirafenib (BGB-283)] (top concentration 10000 nM), the “selective drug sensitivity score” value falls from 13.5 to 3.18.

Compared with `NC(=O)N1CCC(CC(=O)N2CCC([C@H]3c4ncc(Br)cc4CCc4cc(Cl)cc(Br)c43)CC2)CC1` [Lonafarnib] (top concentration 100000 nM), `Nc1ncnc2c1c(-c1cccc(OCc3ccccc3)c1)cn2[C@H]1C[C@@H](CN2CCC2)C1` [NVP-AEW541] (top concentration 10000 nM) is lower in “selective drug sensitivity score” value: 9.44 for the first, -1.52 for the second.

Compared with `NC1(c2ccc(-c3nc4ccn5c(=O)[nH]nc5c4cc3-c3ccccc3)cc2)CCC1` [MK-2206] (top concentration 1000 nM), `CO[C@@H]1[C@H](N(C)C(=O)c2ccccc2)C[C@H]2O[C@]1(C)n1c3ccccc3c3c4c(c5c6ccccc6n2c5c31)C(=O)NC4` [Midostaurin] (top concentration 10000 nM) is higher in “selective drug sensitivity score” value: 3.26 for the first, 4.46 for the second.

Compared with `O=C(Nc1cccc(NC(=O)c2cccc(O)c2O)c1)c1cccc(O)c1O` [MST-312] (top concentration 10000 nM), `CCNC(=O)C[C@@H]1N=C(c2ccc(Cl)cc2)c2cc(OC)ccc2-n2c(C)nnc21` [Molibresib] (top concentration 10000 nM) is lower in “selective drug sensitivity score” value: 6 for the first, 2.7 for the second.

Going from `CCCCCCCCCCCCCCCCOP(=O)([O-])OCC[N+](C)(C)C` [Miltefosine] (top concentration 100000 nM) to `CN[C@@H](C)C(=O)N[C@H](C(=O)N1CCC[C@H]1c1nc(C(=O)c2ccc(F)cc2)cs1)C1CCCCC1` [NVP-LCL161] (top concentration 25000 nM), the “selective drug sensitivity score” value falls from 1.16 to -4.12.

test system: HPB-ALL; assay: as above; details: 72 h

Compared with `Nc1ccccc1NC(=O)c1ccc(CNC(=O)OCc2cccnc2)cc1` [Entinostat] (top concentration 10000 nM), `Nc1ccccc1NC(=O)c1ccc(CNc2nccc(-c3cccnc3)n2)cc1` [Mocetinostat] (top concentration 10000 nM) is higher in “selective drug sensitivity score” value: 4.28 for the first, 8.64 for the second.

Going from `C#Cc1cccc(Nc2ncnc3cc(OCCOC)c(OCCOC)cc23)c1` [Erlotinib] (top concentration 10000 nM) to `COc1cc2c(cc1-c1c(C)noc1C)ncc1[nH]c(=O)n([C@H](C)c3ccccn3)c12` [I-BET151] (top concentration 10000 nM), the “selective drug sensitivity score” value rises from 0.66 to 1.36.

Going from `O=C(Nc1nc2cccc(-c3ccc(CN4CCS(=O)(=O)CC4)cc3)n2n1)C1CC1` [Filgotinib] (top concentration 10000 nM) to `CN(C)C1CCN(C(=O)c2ccc(NC(=O)Nc3ccc(-c4nc(N5CCOCC5)nc(N5CCOCC5)n4)cc3)cc2)CC1` [Gedatolisib] (top concentration 1000 nM), the “selective drug sensitivity score” value rises from -1.34 to -0.04.

Going from `C[C@H]1C=C2C(=O)O[C@H]3CC[C@@H](C1)[C@@]23O` [Galiellalactone] (top concentration 25000 nM) to `CC(=O)O[C@]1(C(C)=O)CC[C@H]2[C@@H]3C=C(C)C4=CC(=O)CC[C@]4(C)[C@H]3CC[C@@]21C` [Megestrol_acetate] (top concentration 10000 nM), the “selective drug sensitivity score” value falls from 5.16 to -0.58.

Compared with `Nc1ccn([C@@H]2O[C@H](CO)[C@@H](O)C2(F)F)c(=O)n1` [Gemcitabine] (top concentration 1000 nM), `O=C1CCc2c(Oc3ccc4c(c3)[C@@H]3[C@H](O4)[C@H]3c3nc4cc(C(F)(F)F)ccc4[nH]3)ccnc2N1` [Lifirafenib (BGB-283)] (top concentration 10000 nM) is higher in “selective drug sensitivity score” value: 0.96 for the first, 0.98 for the second.

Going from `NC(=O)N1CCC(CC(=O)N2CCC([C@H]3c4ncc(Br)cc4CCc4cc(Cl)cc(Br)c43)CC2)CC1` [Lonafarnib] (top concentration 100000 nM) to `Nc1ncnc2c1c(-c1cccc(OCc3ccccc3)c1)cn2[C@H]1C[C@@H](CN2CCC2)C1` [NVP-AEW541] (top concentration 10000 nM), the “selective drug sensitivity score” value falls from 9.84 to 1.58.

Compared with `NC1(c2ccc(-c3nc4ccn5c(=O)[nH]nc5c4cc3-c3ccccc3)cc2)CCC1` [MK-2206] (top concentration 1000 nM), `CO[C@@H]1[C@H](N(C)C(=O)c2ccccc2)C[C@H]2O[C@]1(C)n1c3ccccc3c3c4c(c5c6ccccc6n2c5c31)C(=O)NC4` [Midostaurin] (top concentration 10000 nM) is higher in “selective drug sensitivity score” value: 1.06 for the first, 4.36 for the second.

Compared with `O=C(Nc1cccc(NC(=O)c2cccc(O)c2O)c1)c1cccc(O)c1O` [MST-312] (top concentration 10000 nM), `CCNC(=O)C[C@@H]1N=C(c2ccc(Cl)cc2)c2cc(OC)ccc2-n2c(C)nnc21` [Molibresib] (top concentration 10000 nM) is lower in “selective drug sensitivity score” value: 8.7 for the first, 0.8 for the second.

Going from `CCCCCCCCCCCCCCCCOP(=O)([O-])OCC[N+](C)(C)C` [Miltefosine] (top concentration 100000 nM) to `CN[C@@H](C)C(=O)N[C@H](C(=O)N1CCC[C@H]1c1nc(C(=O)c2ccc(F)cc2)cs1)C1CCCCC1` [NVP-LCL161] (top concentration 25000 nM), the “selective drug sensitivity score” value rises from -2.94 to -2.62.

test system: COG-LL-317; assay: as above; details: 72 h

First: Nc1ccccc1NC(=O)c1ccc(CNC(=O)OCc2cccnc2)cc1 [Entinostat] (top concentration 10000 nM)
Second: O=C(Nc1nc2cccc(-c3ccc(CN4CCS(=O)(=O)CC4)cc3)n2n1)C1CC1 [Filgotinib] (top concentration 10000 nM)
The “selective drug sensitivity score” value of the first is higher: 2.98 for the first, 1.16 for the second.

First: C#Cc1cccc(Nc2ncnc3cc(OCCOC)c(OCCOC)cc23)c1 [Erlotinib] (top concentration 10000 nM)
Second: COc1cc2c(cc1-c1c(C)noc1C)ncc1[nH]c(=O)n([C@H](C)c3ccccn3)c12 [I-BET151] (top concentration 10000 nM)
The “selective drug sensitivity score” value of the first is lower: 0.16 for the first, 6.56 for the second.

First: C[C@H]1C=C2C(=O)O[C@H]3CC[C@@H](C1)[C@@]23O [Galiellalactone] (top concentration 25000 nM)
Second: Nc1ccn([C@@H]2O[C@H](CO)[C@@H](O)C2(F)F)c(=O)n1 [Gemcitabine] (top concentration 1000 nM)
The “selective drug sensitivity score” value of the first is lower: 7.36 for the first, 20.4 for the second.

Compared with `CN(C)C1CCN(C(=O)c2ccc(NC(=O)Nc3ccc(-c4nc(N5CCOCC5)nc(N5CCOCC5)n4)cc3)cc2)CC1` [Gedatolisib] (top concentration 1000 nM), `NC(=O)N1CCC(CC(=O)N2CCC([C@H]3c4ncc(Br)cc4CCc4cc(Cl)cc(Br)c43)CC2)CC1` [Lonafarnib] (top concentration 100000 nM) is higher in “selective drug sensitivity score” value: 5.06 for the first, 14 for the second.

In the case of `O=C1CCc2c(Oc3ccc4c(c3)[C@@H]3[C@H](O4)[C@H]3c3nc4cc(C(F)(F)F)ccc4[nH]3)ccnc2N1` [Lifirafenib (BGB-283)] (top concentration 10000 nM), the “selective drug sensitivity score” value is reported as 2.28.
